The values that follow come from patent USRE48267E1, “Variants of C-type natriuretic peptide” (priority 2009, dated 2020).

Where a SMILES comes first, the peptide text is derived from it. Bridges are numbered along the chain shown (N, C = ends). The star is where a group is joined. MeO(CH2CH2O)23CH2CH2CO = COCCOCCOCCOCCOCCOCCOCCOCCOCCOCCOCCOCCOCCOCCOCCOCCOCCOCCOCCOCCOCCOCCOCCOCCC(=O)*

This experiment concerns FGFR3^ach mice. The experiment can be described thus: efficacy in mouse model of mild achondroplasia. The format is in vivo. The settings on record: 200 nmol/kg s.c. once daily for 5 weeks. The source says: To assess the biodistribution of CNP37 in the bone growth plate in vivo and the in vivo effects of CNP37 on the growth plate (including total growth plate thickness, hypertrophic zone thickness, and cellularity of proliferating zone), bone samples were obtained from FGFR3^ach mice treated with vehicle or CNP37 as described above. For biodistribution and in vivo effects studies, tibias were fixed and stored in 70% ethanol. For immunohistochemistry, the samples were decalcified in 5% formic acid for 2 days, dehydrated and embedded in paraffin. Bones were sectioned at 5 um (microns), which were then deparaffinized, rehydrated, and used for CNP immunohistochemistry as described above. For cellular image analysis, bones were sectioned at 5 (microns), and then deparaffinized, rehydrated, and stained with Alcian Blue for 30 minutes (pH 2.5; MasterTech) and Hematoxylin &
Eosin for 30 seconds. Stained sections were visualized and photographed by brightfield microscopy. Thicknesses of the growth plate and the proliferating and hypertrophic zones were measured using ImageJ software.
The efficacy of CNP variants in enhancing growth and correcting achondroplasia was tested in a mouse model of mild achondroplasia, using a strain of transgenic mice expressing a human FGFR-3 gene having a G380R mutation (FGFR3^ach) (Wang et al., Proc. Natl. Acad. Sci. USA, 96(8): 4455-4460 (1999); Naski et al., Development USA, 125: 4977-4988 (1998); U.S. Pat. Nos. 6,265,632 and 6,136,040).
At 3 weeks of age, FGFR3^ach mice and their wild-type littermates were anesthetized to have lateral whole-body X-ray images taken by Faxitron, and randomized by body weight into the following treatment groups (n=8/group): (1) wild-type/vehicle, (2) FGFR3^ach/vehicle, (3) FGFR3^ach/CNP37, and (4) FGFR3^ach/PEO24-GANRR-CNP22(K4R) (SEQ ID NO: 36). The mice received once daily subcutaneous (s.c.) administration of designated test article (vehicle or 200 nmol/kg CNP variant) for 5 weeks. Satellite groups (n=3) were used to confirm exposure of each test article following a single subcutaneous administration on Day 1. Wild-type male FVB mice that received daily s.c. injection of vehicle for 5 weeks were used as a control for normal growth.
X-ray measurements at baseline and at the end of the study were performed to determine change in the head length, area of the skull, and the external auditory meatus (EAM, the ear canal running from the outer ear to the middle ear). Body weight and tail length were measured at least once weekly, using a digital caliper to measure tail length, and body (nasoanal) length was measured after 5 weeks of treatment. Bone (tibia, femur, ulna and humerus) lengths were measured using a digital caliper at necropsy.
On Day 37, all mice were sacrificed by terminal anesthesia and whole-animal photographs and X-ray images by Faxitron were taken. Left and right tibia, femur, humerus, and ulna were collected and measured using a digital caliper. The left portions of each bone were processed for histology, and the right portions were snap-frozen for archival. Samples obtained from the bones were used to evaluate the effects of NP variants on endochondral bone growth.

In the case of `CC[C@H](C)[C@@H]1NC(=O)[C@H](CCCNC(=N)N)NC(=O)[C@H](CC(=O)O)NC(=O)[C@H](CC(C)C)NC(=O)[C@H](CCCCN)NC(=O)[C@H](CC(C)C)NC(=O)CNC(=O)[C@H](Cc2ccccc2)NC(=O)[C@@H](NC(=O)CNC(=O)[C@H](CCCNC(=N)N)NC(=O)[C@H](CO)NC(=O)[C@H](CC(C)C)NC(=O)CNC(=O)[C@H](CCCNC(=N)N)NC(=O)[C@H](CCCNC(=N)N)NC(=O)[C@H](CC(N)=O)NC(=O)[C@H](C)NC(=O)CNC(=O)CCOCCOCCOCCOCCOCCOCCOCCOCCOCCOCCOCCOCCOCCOCCOCCOCCOCCOCCOCCOCCOCCOCCOCCOC)CSSC[C@@H](C(=O)O)NC(=O)CNC(=O)[C@H](CC(C)C)NC(=O)CNC(=O)[C@H](CO)NC(=O)[C@H](CCSC)NC(=O)[C@H](CO)NC(=O)CNC1=O` [PEO24-GANRR-CNP22(K4R)] ({MeO(CH2CH2O)23CH2CH2CO}-GANRRGLSRGCFGLKLDRIGSMSGLGC-OH; disulfide 11-27), the “Femur length, relative to vehicle-treated FGFR3^ach mice = 100%” value was determined as 100%; the “Humerus length, relative to vehicle-treated FGFR3^ach mice = 100%” value amounted to 100%; the “Naso-Anal length, relative to vehicle-treated FGFR3^ach mice = 100%” value stood at 99%; the “Tail length, relative to vehicle-treated FGFR3^ach mice = 100%” value is 100%. The “Tibia length, relative to vehicle-treated FGFR3^ach mice = 100%” value was determined as 102% and the “Ulna length, relative to vehicle-treated FGFR3^ach mice = 100%” value is 101%.
